The assay concerns the target Protein kinase C (PKC) (Rattus norvegicus) (UniProt P05696+P68403+P09216+P63319+P09215+Q64617+Q9WTQ0+P09217). In words: Activation of protein kinase C. In kind it is protein assay.

`CC(=O)OC(CO)COC(=O)CCCCCCCCCCCCCCc1cccc(I)c1` (stereo not drawn): the Dose was 1 µM.

`CCCCCCCC(=O)OCC(CO)OC(=O)CCc1cccc(I)c1` (stereo not drawn) had a Dose of 1 µM. As for `CC(=O)OCC(CO)OC(=O)CCCCCCCCCCCCCCc1cccc(I)c1` (stereo not drawn), the figure is 1 µM.

These data come from ChEMBL document CHEMBL1124585, “Iodoaryl analogues of dioctanoylglycerol and 1-oleoyl-2-acetylglycerol as probes for protein kinase C” (J Med Chem, 1989).
